Five compounds from patent publication US10520493B2, “Method for assessment of neural function by establishing analysis module” (NATIONAL CHENG KUNG UNIVERSITY, priority 2015, dated 2019) can be followed below.

Molecules are shown by their SMILES.

This data set relates to primarily cultured cortical neurons. The data set is described as follows: High-content image analysis of the effect of chemotherapy drugs on primarily cultured neurons (neuron number, synaptic puncta number, neurite length). The note with it: cells cultured for 10 days, drug added for 24 hours, FIG. 7-9; for neurotoxicity (effect on the neuron number, the synaptic puncta number and the neurite length): MAP2/synaptophysin/Hoechst staining.

Experimental: To analyze neural function accurately, MetaXpress 3.1 software (“MetaXpress® Image Acquisition and Analysis Software (Analysis Guide)” was used on the website ftp://ftp.meta.moleculardevices.com/pub/uic/software/MX31R13/HelpDocs/MetaXpress/MetaXpress_3_1_Analysis_Guide.pdf) to design an analysis module. An automatic analysis was performed according to the following optimal indicators (a)˜(c) for image analysis with 32 steps.
The cultured cells including neurons and glial cells were firstly separated according to the area and the fluorescence intensity of the nucleus stained by Hoechst dye together with MAP2 antibody.
After neurons stained with MAP2 were selected, the area of neuronal cell body, the length and the number of processes and branches of the neurites were calculated to verify outgrowth of the neurites.
Numbers of synaptic puncta of the neurons were calculated according to the area of the neurites labeled with fluorescence mentioned above to verify formation of the synaptic puncta of the neurons.
Cerebral cortex was obtained from 0˜1 day old B6 mice pup and meninges were removed. DMEM/F12 medium without serum was used to triturate the cortex tissue. Then, the DMEM/F12 medium without serum was refilled to 5 mL, mixed evenly with 0.5 mL trypsin, and placed at 37° C. for 5 minutes. Then the mixture with 1 mL FBS was filtered through a cell strainer. After a centrifugation at 3,000 rpm for 10 min, the supernatant was removed and precipitated cells were added to a medium required for nerve cell culture. The medium was prepared by adding B-27® Supplement, 0.5 mM L-glutamine, and 0.5% penicillin streptomycin to Neurobasal® A medium.
(2) Black multi-well microplates with clear bottom were used for nerve cell culture. Each well was coated with 70 μL poly-D-lysine or poly-L-lysine. Cells were seeded in a density of 2.8×10^4/well. After cells were cultured for 10 days, chemotherapy drugs listed in the table 1 was respectively added to react with cells for 24 hours. Then cells were fixed with 4% polyformaldehyde for 10 min and washed with PBS twice for 5 min each. Then, each well was added with 1 M glycine reacting for 10 min and wash with PBS twice for 5 min each. After cells were added with 0.05% Triton X-100 reacting for 20 min and washed with PBS twice for 5 min each, cell were blocked with 4% BSA for 1 hour and then stained with primary antibodies including anti-MAP2 antibody (MyBioSource; MBS502140) and anti-synaptophysin antibody (Abcam; ab32127) for 12-16 hours. Next, cells were washed twice with PBST (10 min each) and incubated with fluorescence-conjugated secondary antibodies including Alexa Fluor 488 (Jackson ImmunoResearch; 703-546-155) and Alexa Fluor 647 (molecular probes; A31573) and Hoechst 33258 for 1 hour. At last, cells were washed twice with PBST (10 min each) and added with PBS for further image acquisition and analysis.
(3) Fluorescence microscopy system and method mentioned in the above embodiment were used to capture images at the wavelength of DAPI, FITC, and Cy5 for image analysis of the cultured cells. The images were enlarged 200 times (200×) and saved automatically after the shooting for analysis.

Regarding `Nc1ccn([C@@H]2O[C@H](CO)[C@@H](O)C2(F)F)c(=O)n1` [Gemcitabine], the “neurotoxicity (effect on the neuron number, the synaptic puncta number and the neurite length)” value is recorded as “less neurotoxicity”.

As for `CC[C@]1(O)C[C@H]2CN(CCc3c([nH]c4ccccc34)[C@@](C(=O)OC)(c3cc4c(cc3OC)N(C=O)[C@H]3[C@@](O)(C(=O)OC)[C@H](OC(C)=O)[C@]5(CC)C=CCN6CC[C@]43[C@@H]65)C2)C1` [vincristine, Vincristine], the “neurotoxicity (effect on the neuron number, the synaptic puncta number and the neurite length)” value is recorded as “severe neurotoxicity”.

For the compound `COc1cccc2c1C(=O)c1c(O)c3c(c(O)c1C2=O)C[C@@](O)(C(=O)CO)C[C@@H]3O[C@H]1C[C@H](N)[C@H](O)[C@H](C)O1` [doxorubicin, Doxorubicin], the “neurotoxicity (effect on the neuron number, the synaptic puncta number and the neurite length)” value was “less neurotoxicity”.

Consider `N.N.O=C([O-])C1(C(=O)[O-])CCC1.[Pt+2]` [carboplatin, Carboplatin], for which, under “compared with cisplatin”, the “neurotoxicity compared with cisplatin” value is “less neurotoxicity”.

As for `CC(=O)O[C@H]1C(=O)[C@@]2(C)[C@H]([C@H](OC(=O)c3ccccc3)[C@]3(O)C[C@H](OC(=O)[C@H](O)[C@@H](NC(=O)c4ccccc4)c4ccccc4)C(C)=C1C3(C)C)[C@]1(OC(C)=O)CO[C@@H]1C[C@@H]2O` [paclitaxel, Paclitaxel], the “neurotoxicity (effect on the neuron number, the synaptic puncta number and the neurite length)” value is given as “severe neurotoxicity”.
